According to patent US5908841A, “5,11-dihydro-6H-dipyrido[3,2-b:2',3'-e]azepine-6-ones and their use in the prevention of treatment of HIV infection” (priority 1998, dated 1999):

Target: T1, HIV-1 reverse transcriptase, wild type (WT) (Human immunodeficiency virus type 1 group M subtype B, UniProt P03367)
T1 construct: Reverse transcriptase enzyme from the LAV strain of Human Immunodeficiency Virus (HIV-1); made in house; host or cells: Escherichia coli JM109 (clone pBRTprtl+ in vector pIBI21)
Experiment: Reverse Transcriptase Assay, wild type (WT) enzyme (RNA-dependent DNA polymerase activity; poly r(C)/oligo d(G), 3H-dGTP)
Format: biochemical, HIV-1 (LAV strain)
Conditions: wild type (WT) RT
Source text: Utilizing the Reverse Transcriptase (RT) Assay described below, compounds can be tested for their ability to inhibit the RNA-dependent DNA polymerase activity of HIV-1 RT. Certain specific compounds described in the Examples which appear below, were so tested.
Among the enzymes for which Human Immunodeficiency Virus (HIV-1) encodes is a reverse transcriptase (1), so-named because it transcribes a DNA copy from an RNA template. This activity can be quantitatively measured in a cell-free enzyme assay, which has been previously described (2), and is based upon the observation that reverse transcriptase is able to use a synthetic template [poly r(C) primed with oligo d(G)] to transcribe a radio-labelled, acid-precipitable DNA strand utilizing ^3 H-dGTP as a substrate. The assay described below utilizes the wild type (WT) enzyme, which is the predominant form of the enzyme observed in patients infected with HIV-1. Utilization of mutant RT enzymes (Y181C and Y181L, prepared by site-directed mutagenesis in which the tyrosine residue at codon 181 has been replaced by a cysteine or a leucine residue, respectively) and analogous assay conditions allows compounds to be evaluated for their effectiveness at inhibiting these mutant enzymes.
a) Preparation of the wild type enzyme Reverse transcriptase enzyme from the LAV strain of Human Immunodeficiency Virus (HIV-1) (1) was isolated from the bacterial strain JM109 (3) expressing the DNA clone pBRTprtl+ (2) which is under the control of the lac promotor in the expression vector pIBI21 (4). An overnight culture grown in 2XYT medium (37° C., 225 rpm) (5) supplemented with 100 μg/mL ampicillin for positive selection is inoculated at a 1:40 dilution into M9 medium supplemented with 10 μg/mL thiamine, 0.5% casamino acids, and 50 μg/mL ampicillin (5). The culture is incubated (37° C., 225 rpm) until it reaches an OD540 of 0.3-0.4. At that time the repressor inhibitor IPTG (isopropyl β-D-thiogalactopyranoside) is added to 0.5 mM, and the mixture is incubated for 2 additional hours. Bacteria are pelleted, resuspended in a 50 mM Tris, 0.6 mM EDTA, 0.375M NaCl buffer and digested by the addition of lysozyme (1 mg/mL) for 30 minutes on ice. The cells are lysed by the addition of 0.2% NP-40 and brought to 1M NaCl.
After removal of the insoluble debris by centrifugation, the protein is precipitated by the addition of 3 volumes of saturated aqueous ammonium sulfate. The enzyme is pelleted, resuspended in RT buffer (50 mM Tris pH 7.5, 1 mM EDTA, 5 mM DTT, 0.1% NP-40, 0.1M NaCl, and 50% glycerol), and stored at -70° C. for further use.
b) Composition of 2× concentrated stock reaction mixture
[poly r(C)/oligo d(G)] (5:1)
The 2× concentrated stock reaction mixture is aliquoted and stored at -20° C. The mixture is stable and thawed for use in each assay. This enzyme assay has been adapted to a 96 well microtiter plate system, and has been previously described (6). Tris buffer (50 mM, pH 7.4), vehicle (solvent diluted to match the compound dilution), or compounds in vehicle are dispensed into 96-well microtiter plates (10 μL/well; 3 wells/compound). The HIV-1 RT enzyme is thawed, diluted in 50 mM Tris pH 7.4 so that fifteen μL of diluted enzyme contain 0.001 Unit (one unit is that amount of enzyme to transform 1 micromole of substrate per minute at 25° C.), and fifteen μL are dispensed per well. Twenty μL of 0.12-0.5M EDTA are added to the first three wells of the microtiter plate. EDTA chelates the Mg^++ present and prevents reverse transcription. This group serves as background polymerization which is subtracted from all other groups. Twenty-five μl of the 2× reaction mixture are added to all wells and the assay is allowed to incubate at room temperature for 60 minutes. The assay is terminated by precipitating the DNA in each well with 50 μL of 10% trichloracetic acid (TCA) (10% w/v) in sodium pyrophosphate (1% w/v). […]

CCC1(CC)c2ncccc2C(=O)N(C)c2cccnc21 [Example 5, 5,11-Dihydro-11-diethyl-5-methyldipyrido[3,2-b:2',3'-e]azepine-6-one]
inhibition at 1 µM: 62%

COc1ccc2c(n1)C(SC)c1c(ccc[n+]1[O-])C(=O)N2C (stereo not shown) [Example 10, 5,11-Dihydro-11-methylthio-2-methoxy-5-methyl-10-oxodipyrido[3,2-b:2',3'-e]azepine-6-one]
inhibition at 1 µM: 91%

CCC1c2nc(OC)ccc2N(C)C(=O)c2ccc[n+]([O-])c21 (stereo not shown) [Example 7, 5,11-Dihydro-11-ethyl-2-methoxy-5-methyl-10-oxodipyrido[3,2-b:2',3'-e]azepine-6-one]
inhibition at 1 µM: 75%

CCC1c2ncccc2N(C)C(=O)c2ccc[n+]([O-])c21 (stereo not shown) [Example 1, 5,11-Dihydro-11-ethyl-5-methyl-10-oxo-6H-dipyrido[3,2-b:2',3'-e]azepin-6-on]
inhibition at 1 µM: 68%

CCC1(C)c2ncccc2C(=O)N(C)c2cccnc21 (stereo not shown) [Example 4, 5,11-Dihydro-11-ethyl-11-methyl-5-methyldipyrido[3,2-b:2',3'-e]azepine-6-one]
inhibition at 1 µM: 68%

CN1C(=O)c2cccnc2C2(CCCC2)c2ncccc21 [Example 6, 5,11-Dihydro-11-spirocyclopentyl-5-methyldipyrido[3,2-b:2',3'-e]azepine-6-one]
inhibition at 1 µM: 62%

CCCC1c2ncccc2C(=O)N(C)c2cccnc21 (stereo not shown) [Example 3, 5,11-Dihydro-11-propyl-5-methyldipyrido[3,2-b:2',3'-e]azepine-6-one]
inhibition at 1 µM: 64%

CCC1c2ncccc2C(=O)N(C)c2ccc(OC)nc21 (stereo not shown) [Example 8, 5,11-Dihydro-11-ethyl-2-methoxy-5-methyl-dipyrido[3,2-b:2',3'-e]azepine-6-one]
inhibition at 1 µM: 84%

COc1ccc2c(n1)C(SC)c1ncccc1C(=O)N2C (stereo not shown) [Example 11, 5,11-Dihydro-11-methylthio-2-methoxy-5-methyl-dipyrido[3,2-b:2',3'-e]azepine-6-one]
inhibition at 1 µM: 80%

CCC1c2ncccc2C(=O)N(C)c2cccnc21 (stereo not shown) [Example 2, 5,11-Dihydro-11-ethyl-5-methyldipyrido[3,2-b:2',3'-e]azepine-6-one]
inhibition at 1 µM: 62%

COc1ccc2c(n1)C(C)(SC)c1ncccc1C(=O)N2C (stereo not shown) [Example 12, 5,11-Dihydro-11-methyl-11-methylthio-2-methoxy-5-methyl-dipyrido[3,2-b:2',3'-e]azepine-6-one]
inhibition at 1 µM: 41%

CCC1(CC)c2ncccc2C(=O)N(C)c2ccc(OC)nc21 [Example 9, 5,11-Dihydro-11-diethyl-2-methoxy-5-methyl-dipyrido[3,2-b:2',3'-e]azepine-6-one]
inhibition at 1 µM: 66%

CCC1c2ncccc2C(=O)N(C)c2ccc(-c3cn[nH]c3)nc21 (stereo not shown) [Example 13, 5,11-Dihydro-11-ethyl-2-(4-pyrazolyl)-5-methyl-dipyrido[3,2-b:2',3'-e]azepine-6-one]
inhibition at 1 µM: 80%
